# ChEMBL document CHEMBL1201862, “PubChem BioAssay data set” (2004)
# Active and inactive are the calls of the source.
# Legend:
# [1] = biological target: T1, Adenosylmethionine-8-amino-7-oxononanoate aminotransferase (Mycobacterium tuberculosis, UniProt P9WQ81); assay: Mycobacterium tuberculosis BioA enzyme inhibitor Measured in Biochemical System Using Plate Reader - 2163-02_Inhibitor_Dose_CherryPick_Activity.; format: functional, Mycobacterium tuberculosis UT205
# T1 sequence (P9WQ81 whole entry): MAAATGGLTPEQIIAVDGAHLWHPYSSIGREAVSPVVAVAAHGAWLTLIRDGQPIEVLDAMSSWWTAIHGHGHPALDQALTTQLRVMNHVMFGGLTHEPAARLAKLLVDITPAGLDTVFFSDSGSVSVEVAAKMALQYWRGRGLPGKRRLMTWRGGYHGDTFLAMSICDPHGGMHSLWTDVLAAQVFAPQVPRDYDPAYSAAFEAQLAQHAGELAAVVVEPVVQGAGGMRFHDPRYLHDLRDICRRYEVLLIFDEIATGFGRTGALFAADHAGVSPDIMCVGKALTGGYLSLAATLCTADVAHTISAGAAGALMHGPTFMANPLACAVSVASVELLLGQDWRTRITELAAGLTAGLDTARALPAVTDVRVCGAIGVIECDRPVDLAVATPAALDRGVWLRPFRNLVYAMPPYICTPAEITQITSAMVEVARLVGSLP
# [2] = biological target: T2, Mitochondrial peptide methionine sulfoxide reductase (Bos taurus, UniProt P54149); format: functional;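 further: absorbance read-out, biochemical high-throughput dose-response screen for MsrA inhibitors, confirmatory; recombinant bovine MsrA coupled to E. coli TrxB with NADPH and selenocystamine; potency is for inhibitors of MsrA activity on DMSO substrate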
# T2 sequence (P54149 whole entry): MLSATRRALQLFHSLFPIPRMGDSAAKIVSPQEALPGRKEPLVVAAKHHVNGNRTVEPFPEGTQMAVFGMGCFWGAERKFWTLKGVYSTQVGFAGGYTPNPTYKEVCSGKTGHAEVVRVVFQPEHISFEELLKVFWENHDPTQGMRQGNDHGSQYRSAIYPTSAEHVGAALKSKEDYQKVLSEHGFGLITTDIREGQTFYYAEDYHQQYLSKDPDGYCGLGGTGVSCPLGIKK
# [3] = biological target: DNA (cytosine-5)-methyltransferase 1 (Homo sapiens, UniProt P26358); assay: inhibition of DNA methylation by DNMT1 – biochemical, fluorescent molecular beacon, confirmation (AID 602386); format: functional
# Chain of DNA (cytosine-5)-methyltransferase 1 (P26358 whole entry): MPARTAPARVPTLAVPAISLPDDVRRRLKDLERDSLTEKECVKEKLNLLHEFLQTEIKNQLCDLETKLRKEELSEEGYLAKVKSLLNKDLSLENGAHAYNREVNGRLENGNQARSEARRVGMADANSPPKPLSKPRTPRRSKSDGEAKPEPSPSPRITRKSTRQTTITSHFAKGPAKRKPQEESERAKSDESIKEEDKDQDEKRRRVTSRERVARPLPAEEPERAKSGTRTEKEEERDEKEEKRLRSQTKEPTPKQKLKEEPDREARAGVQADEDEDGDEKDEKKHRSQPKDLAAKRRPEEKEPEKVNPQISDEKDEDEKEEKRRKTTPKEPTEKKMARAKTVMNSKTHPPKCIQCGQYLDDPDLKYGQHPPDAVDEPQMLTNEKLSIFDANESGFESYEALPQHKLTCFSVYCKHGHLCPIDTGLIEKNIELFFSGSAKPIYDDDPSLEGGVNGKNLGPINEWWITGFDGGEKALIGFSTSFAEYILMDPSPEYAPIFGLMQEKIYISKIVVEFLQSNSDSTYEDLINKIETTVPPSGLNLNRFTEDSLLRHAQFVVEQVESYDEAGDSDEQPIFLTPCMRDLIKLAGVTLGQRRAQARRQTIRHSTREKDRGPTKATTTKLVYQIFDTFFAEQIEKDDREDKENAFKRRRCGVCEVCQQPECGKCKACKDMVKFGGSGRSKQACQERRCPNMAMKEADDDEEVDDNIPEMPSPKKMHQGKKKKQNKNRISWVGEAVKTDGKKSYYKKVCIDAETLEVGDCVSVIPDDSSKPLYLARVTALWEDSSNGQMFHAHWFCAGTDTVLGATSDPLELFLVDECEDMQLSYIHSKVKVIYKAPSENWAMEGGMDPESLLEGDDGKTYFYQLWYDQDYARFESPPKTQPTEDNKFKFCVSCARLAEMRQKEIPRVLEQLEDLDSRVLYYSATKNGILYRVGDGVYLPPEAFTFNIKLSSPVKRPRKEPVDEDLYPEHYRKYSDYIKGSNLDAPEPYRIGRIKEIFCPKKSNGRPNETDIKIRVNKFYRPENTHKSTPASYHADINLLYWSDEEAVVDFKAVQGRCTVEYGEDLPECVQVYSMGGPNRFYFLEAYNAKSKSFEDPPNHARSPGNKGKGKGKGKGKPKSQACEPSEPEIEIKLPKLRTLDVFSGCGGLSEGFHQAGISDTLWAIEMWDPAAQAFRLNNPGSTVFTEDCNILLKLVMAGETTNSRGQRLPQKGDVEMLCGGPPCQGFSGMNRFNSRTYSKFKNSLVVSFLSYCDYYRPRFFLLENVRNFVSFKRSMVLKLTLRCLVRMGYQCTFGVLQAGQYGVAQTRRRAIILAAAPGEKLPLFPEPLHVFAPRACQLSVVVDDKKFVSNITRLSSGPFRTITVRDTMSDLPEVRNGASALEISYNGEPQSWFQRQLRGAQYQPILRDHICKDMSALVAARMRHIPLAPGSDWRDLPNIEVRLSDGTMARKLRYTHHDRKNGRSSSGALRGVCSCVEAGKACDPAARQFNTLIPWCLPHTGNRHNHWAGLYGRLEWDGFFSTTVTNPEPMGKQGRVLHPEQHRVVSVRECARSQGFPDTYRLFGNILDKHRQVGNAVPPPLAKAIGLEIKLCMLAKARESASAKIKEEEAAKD
# [4] = biological target: T3, Zinc finger protein mex-5 (Caenorhabditis elegans, UniProt Q9XUB2); assay: potency of MEX-5 RNA-binding blockers – biochemical, C. elegans, fluorescence polarization, dose response (AID 1960)
# T3 sequence (Q9XUB2 whole entry): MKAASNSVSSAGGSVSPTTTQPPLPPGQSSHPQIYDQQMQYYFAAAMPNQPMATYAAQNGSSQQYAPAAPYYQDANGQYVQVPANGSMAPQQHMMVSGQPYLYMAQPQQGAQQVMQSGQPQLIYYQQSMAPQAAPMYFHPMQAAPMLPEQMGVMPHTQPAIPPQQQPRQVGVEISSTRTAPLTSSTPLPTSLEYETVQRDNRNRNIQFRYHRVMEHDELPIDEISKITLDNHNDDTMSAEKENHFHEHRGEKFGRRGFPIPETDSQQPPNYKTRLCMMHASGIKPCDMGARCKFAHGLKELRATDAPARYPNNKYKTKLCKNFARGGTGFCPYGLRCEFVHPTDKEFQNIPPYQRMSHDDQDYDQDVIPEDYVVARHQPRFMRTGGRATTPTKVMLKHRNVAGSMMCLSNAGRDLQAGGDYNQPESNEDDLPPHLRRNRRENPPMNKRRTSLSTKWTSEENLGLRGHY
# [5] = biological target: T4, RNA-binding protein pos-1 (Caenorhabditis elegans, UniProt G5EF15); assay: disruptors of C. elegans POS-1 RNA interaction – biochemical, fluorescence polarization, dose response (AID 1964);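 further: purified POS-1 fused to maltose binding protein made in E. coli; potency of compounds blocking POS-1 binding to fluorescent RNA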
# T4 sequence (G5EF15 whole entry): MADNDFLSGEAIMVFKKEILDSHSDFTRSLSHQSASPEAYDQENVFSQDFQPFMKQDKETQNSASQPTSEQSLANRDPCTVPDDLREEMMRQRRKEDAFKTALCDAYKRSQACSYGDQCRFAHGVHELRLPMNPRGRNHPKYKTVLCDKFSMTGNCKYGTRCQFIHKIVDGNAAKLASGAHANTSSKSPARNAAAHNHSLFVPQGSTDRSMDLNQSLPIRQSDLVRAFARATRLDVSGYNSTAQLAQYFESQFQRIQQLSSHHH
# [6] = biological target: T5, High affinity choline transporter 1 (Homo sapiens, UniProt Q9GZV3); assay: human choline transporter blockers, potency – cell-based, 5-point CRC, membrane potential dye, dose response (AID 504840); format: functional
# T5 sequence (Q9GZV3 whole entry): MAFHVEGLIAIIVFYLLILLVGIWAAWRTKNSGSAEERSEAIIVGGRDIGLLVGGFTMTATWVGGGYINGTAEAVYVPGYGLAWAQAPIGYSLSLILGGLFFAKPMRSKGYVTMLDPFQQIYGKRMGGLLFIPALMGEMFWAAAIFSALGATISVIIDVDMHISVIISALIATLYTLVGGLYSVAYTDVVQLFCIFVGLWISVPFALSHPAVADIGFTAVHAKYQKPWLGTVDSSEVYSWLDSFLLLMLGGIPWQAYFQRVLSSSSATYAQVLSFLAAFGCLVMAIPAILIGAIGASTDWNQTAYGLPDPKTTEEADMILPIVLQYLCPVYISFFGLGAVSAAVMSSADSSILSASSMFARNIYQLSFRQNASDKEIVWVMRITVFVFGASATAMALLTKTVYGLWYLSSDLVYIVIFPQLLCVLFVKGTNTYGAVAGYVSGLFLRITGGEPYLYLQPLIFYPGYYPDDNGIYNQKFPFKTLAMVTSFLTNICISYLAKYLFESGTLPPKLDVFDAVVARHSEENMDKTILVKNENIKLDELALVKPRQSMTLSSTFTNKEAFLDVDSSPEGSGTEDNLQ
# [7] = biological target: T5, High affinity choline transporter 1; assay: human choline transporter blockers, potency – cell-based, 10-point CRC, membrane potential dye, dose response (AID 588401); format: functional;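 further: membrane potential dye fluorescence of choline-evoked depolarization via CHT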
# [8] = biological target: T6, Probable nicotinate-nucleotide adenylyltransferase (Staphylococcus aureus (strain N315), UniProt P65502); format: functional, Staphylococcus aureus subsp. aureus N315;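 on IC50 Mean: confirmatory dose-response retesting of NadD inhibitor hits first found in an ultra-high-throughput screen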
# T6 sequence (P65502 whole entry): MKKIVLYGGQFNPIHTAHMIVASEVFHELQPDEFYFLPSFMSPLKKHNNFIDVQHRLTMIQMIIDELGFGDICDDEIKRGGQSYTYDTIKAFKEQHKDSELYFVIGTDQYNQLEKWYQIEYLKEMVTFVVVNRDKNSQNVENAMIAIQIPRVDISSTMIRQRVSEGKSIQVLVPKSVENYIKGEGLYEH
# [9] = biological target: T6, Probable nicotinate-nucleotide adenylyltransferase; format: functional, Staphylococcus aureus subsp. aureus N315; conditions: read-out: IC50_Mean
# [10] = bead-based luminescence quenchers, dual-tagged ARNT – biochemical, AlphaScreen, cherry-pick, artefact control for ARNT-TACC3 interaction inhibitor project, dose response (AID 651705); format: functional;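 further: AlphaScreen bead proximity signal that flags compounds interfering with the detection technology; potency reflects signal decrease which marks the compound as an assay artifact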
# Melanocortin receptor 4 = Melanocortin receptor 4 (Homo sapiens, UniProt P32245); assay: inhibitors of MC4R cAMP signaling – cell-based, TR-FRET, biased antagonists, dose response (AID 602298); format: functional;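 further: antagonist potency against agonist-stimulated cAMP production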
# Chain of Melanocortin receptor 4 (P32245 whole entry): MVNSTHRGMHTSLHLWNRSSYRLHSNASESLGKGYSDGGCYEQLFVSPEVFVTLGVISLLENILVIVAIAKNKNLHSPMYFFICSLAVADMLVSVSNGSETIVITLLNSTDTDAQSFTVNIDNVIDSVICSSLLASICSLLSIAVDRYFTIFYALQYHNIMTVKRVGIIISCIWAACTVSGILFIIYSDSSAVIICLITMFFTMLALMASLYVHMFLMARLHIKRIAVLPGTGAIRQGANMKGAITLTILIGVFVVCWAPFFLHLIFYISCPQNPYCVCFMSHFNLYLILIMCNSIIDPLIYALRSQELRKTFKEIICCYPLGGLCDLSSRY
# [11] = cAMP pathway inhibition in counterscreen cell line – TR-FRET cAMP detection, counter-screen for MC4R biased antagonist project, dose response (AID 602305); format: functional, cell-based;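 further: U2OS cells stimulated with forskolin near its EC80 as the cAMP inducer; potency is for inhibition of forskolin-stimulated cAMP signaling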
# [12] = A Cell Based Secondary Assay To Explore Cytotoxicity of Compounds that Sensitize Mycobacterium Tuberculosis to Beta-Lactam Antibiotics.; format: functional
# Aminopeptidase N = biological target: T7, Aminopeptidase N (Plasmodium falciparum FcB1/Columbia, UniProt O96935); assay: malaria alanyl aminopeptidase activity blockers – biochemical, fluorogenic H-Leu-NHMec substrate, 1536-well (AID 1445); set-up: species or system Plasmodium falciparum 3D7, 3D7
# T7 sequence (O96935 whole entry): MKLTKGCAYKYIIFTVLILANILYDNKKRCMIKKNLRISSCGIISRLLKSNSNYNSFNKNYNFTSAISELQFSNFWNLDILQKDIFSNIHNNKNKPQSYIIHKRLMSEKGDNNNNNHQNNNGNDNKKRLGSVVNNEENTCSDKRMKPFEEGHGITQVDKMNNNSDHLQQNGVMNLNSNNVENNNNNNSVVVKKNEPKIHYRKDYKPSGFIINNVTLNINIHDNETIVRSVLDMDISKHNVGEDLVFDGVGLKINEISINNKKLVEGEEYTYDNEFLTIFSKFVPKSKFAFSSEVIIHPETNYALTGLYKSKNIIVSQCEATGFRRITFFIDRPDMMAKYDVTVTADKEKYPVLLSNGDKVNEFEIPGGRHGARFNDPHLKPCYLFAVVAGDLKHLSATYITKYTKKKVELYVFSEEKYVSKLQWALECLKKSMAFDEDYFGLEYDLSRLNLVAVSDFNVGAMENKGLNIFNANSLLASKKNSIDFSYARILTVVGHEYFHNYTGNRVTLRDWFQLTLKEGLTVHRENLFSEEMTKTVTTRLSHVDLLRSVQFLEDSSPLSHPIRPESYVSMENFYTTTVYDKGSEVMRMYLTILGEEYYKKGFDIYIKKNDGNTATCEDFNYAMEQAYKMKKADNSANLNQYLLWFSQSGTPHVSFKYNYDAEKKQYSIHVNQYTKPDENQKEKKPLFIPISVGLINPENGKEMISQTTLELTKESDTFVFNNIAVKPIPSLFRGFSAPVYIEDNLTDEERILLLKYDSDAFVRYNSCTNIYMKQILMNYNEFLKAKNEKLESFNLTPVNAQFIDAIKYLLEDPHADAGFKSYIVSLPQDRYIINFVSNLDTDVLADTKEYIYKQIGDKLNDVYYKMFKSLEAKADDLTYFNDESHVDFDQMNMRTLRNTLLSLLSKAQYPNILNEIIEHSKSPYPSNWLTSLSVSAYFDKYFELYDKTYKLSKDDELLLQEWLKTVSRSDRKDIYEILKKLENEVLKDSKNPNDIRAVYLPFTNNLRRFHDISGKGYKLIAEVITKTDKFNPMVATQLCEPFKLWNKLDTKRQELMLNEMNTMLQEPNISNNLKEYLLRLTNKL
# cells [13] = format: functional, cell-based
# Nonstructural protein 1 = Nonstructural protein 1 (Influenza A virus, UniProt Q194T2); format: functional, Influenza A virus (A/California/07/2009(H1N1))
# Chain of Nonstructural protein 1 (Q194T2 whole entry): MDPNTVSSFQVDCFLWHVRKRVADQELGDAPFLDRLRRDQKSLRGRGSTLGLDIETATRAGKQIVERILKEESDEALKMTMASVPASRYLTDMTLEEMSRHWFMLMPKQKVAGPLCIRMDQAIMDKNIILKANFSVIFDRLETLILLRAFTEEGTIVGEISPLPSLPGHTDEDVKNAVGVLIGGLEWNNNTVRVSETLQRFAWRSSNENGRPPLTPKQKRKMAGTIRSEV
# cells [14] = format: functional, cell-based; remark: listed apart in the source
# [15] = biological target: T8, Microphthalmia-associated transcription factor (Homo sapiens, UniProt O75030); assay: reducers of TRPM1 reporter luminescence, concentration series – cell-based, SK-MEL-5, cherry-picked, set 3, MITF inhibitor project, dose response (AID 493073); format: functional;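 further: SK-MEL-5 melanoma cells with luciferase driven by the MITF target TRPM1 promoter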
# T8 sequence (O75030 whole entry): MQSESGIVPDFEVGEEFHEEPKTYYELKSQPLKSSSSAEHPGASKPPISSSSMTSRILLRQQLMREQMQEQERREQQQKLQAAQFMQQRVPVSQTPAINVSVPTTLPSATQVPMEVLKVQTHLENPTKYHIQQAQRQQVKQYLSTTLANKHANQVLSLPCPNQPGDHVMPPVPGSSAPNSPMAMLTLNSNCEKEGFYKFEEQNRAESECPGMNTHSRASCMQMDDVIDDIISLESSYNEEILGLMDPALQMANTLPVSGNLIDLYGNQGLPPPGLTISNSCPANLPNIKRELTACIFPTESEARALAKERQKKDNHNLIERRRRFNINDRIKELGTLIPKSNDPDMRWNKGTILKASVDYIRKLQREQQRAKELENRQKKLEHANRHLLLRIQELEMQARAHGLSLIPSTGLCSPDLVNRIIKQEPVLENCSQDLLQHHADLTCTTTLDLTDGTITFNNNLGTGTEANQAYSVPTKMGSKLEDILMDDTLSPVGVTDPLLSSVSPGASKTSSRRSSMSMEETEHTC
compound,measurement,setting,value
CC1(C)CC(=O)C=C(c2ccc3ncccc3c2)C1,AC50,[1],4.74 µM (active)
C/C(CCC(=O)O)=N/Nc1ccc([N+](=O)[O-])cc1[N+](=O)[O-],IC50,[2],155 µM (inactive)
O=C(Nc1ccc2nccnc2c1)c1cnccn1,AC50,[1],6.04 µM (active)
N#C/C(=C\Nc1ccccc1O)c1nc2ccccc2o1,IC50,[2],155 µM (inactive)
CC(=O)c1ccc(N2CCN(C(=O)c3ccc(Br)cc3)CC2)c(F)c1,AC50,[1],0.182 µM (active)
Cc1c(C(=O)O)cccc1-n1c(C)cc(/C=C2\C(=O)NC(=O)N(c3ccc4c(c3)OCO4)C2=O)c1C,IC50,[3],18 µM (active)
same,EC50,[4],> 300 µM (not active)
same,EC50,[5],> 300 µM (not active)
O=[N+]([O-])c1cc(Br)cc(/C=N/c2ccc3c(c2)OCO3)c1O,IC50,[6],9.12 µM (active)
same,IC50,[7],10 µM (active)
COc1ccc(Oc2c(OC)cc(NCc3ccc(CN)cc3)c3ncccc23)cc1,IC50,[3],10.3 µM (active)
same,IC50,[8],7.55 µM (active)
same,IC50,[9],41.3 µM (active)
O=C(CSc1ccc2nnc(-c3ccccn3)n2n1)Nc1ccc2c(c1)OCO2,AC50,[10],107 µM (active)
CCc1occc(=O)c1Oc1cc(NN2CCCCC2)c([N+](=O)[O-])cc1[N+](=O)[O-],IC50,[2],119 µM (inactive)
C#CCNc1c(C)c(C)nc2ncnn12,IC50,[6],9.35 µM (active)
same,IC50,[7],4.47 µM (active)
O=C(Nc1nnc(C2=COCCO2)o1)c1ccc([N+](=O)[O-])cc1,AC50,[10],101 µM (active)
CCCn1c2ccccc2c2cnn(CC(=O)NCCN(CC)CC)c(=O)c21,IC50,[6],5.7 µM (active)
same,IC50,[7],3.36 µM (active)
O=[N+]([O-])c1cc(NS(=O)(=O)c2ccc(Cl)nc2)ccc1Cl,IC50,[6],2.4 µM (active)
same,IC50,[7],3.35 µM (active)
Cc1ccc2nc(-c3ccc(NC(=S)NC(=O)C(C)C)cc3)sc2c1,IC50,Melanocortin receptor 4,> 64.6 µM (inactive)
same,IC50,[11],> 64.6 µM (inactive)
same,CC50,[12],> 40 µM (active)
O=C(N/N=C/c1cc(Br)ccc1O)C(c1ccncc1)N1CCOCC1 (stereo not drawn),IC50,Aminopeptidase N,12 µM (active)
same,EC50,cells [13],189 µM (active)
same,IC50,Nonstructural protein 1,12.5 µM (active)
same,EC50,cells [14],> 350 µM (not active)
same,AC50,[10],78.4 µM (active)
Cc1cc(C(=O)CCl)c(C)n1CCc1ccc(F)cc1,AC50,[15],4.25 µM (active)
same,IC50,Melanocortin receptor 4,> 64.5 µM (inactive)
same,IC50,[11],> 64.5 µM (inactive)
